Measured values as given in patent publication US20260116920A1, “HUMAN TRANSFERRIN RECEPTOR BINDING PEPTIDE” (PEPTIDREAM INC., priority 2021, published 2026).
Positions of bridges follow the written chain, without caps; N, C: chain ends. Non-standard residues stand in square brackets, D forms with d. Residues, ends and D or L forms follow the SMILES beside them. *: point of attachment. Trp(1-CH2COOH) = N[C@@H](Cc1cn(CC(=O)O)c2ccccc12)C(=O)O; Nle(6-morpholino) = N[C@@H](CCCCN1CCOCC1)C(=O)O; NMePhe(3-Cl) = CN[C@@H](Cc1cccc(Cl)c1)C(=O)O; NMeY = CN[C@@H](Cc1ccc(O)cc1)C(=O)O; PEG4 = NCCOCCOCCOCCOCCC(=O)O; Carboxymethyl = O=C(O)C*

Molecular target: T1, human transferrin receptor (hTfR) (Homo sapiens, UniProt P02786)
T1 construct: made in house
Assay: Evaluation of molecular interaction between transferrin receptor (hTfR) and peptide using surface plasmon resonance (SPR)
Format: binding
Conditions: KD class for binding to hTfR by SPR; peptide with the linker shown in the same line; 'low signal indicates no activity'; read-out: SPR
Method in brief: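 SPR, single-cycle kinetics; hTfR dimer on NTA chip via Ni capture plus EDC/NHS coupling. Analyte peptide 100, 50, 25, 10, 5 nM. Running buffer: 10 mM HEPES pH 8.0, 150 mM NaCl, 0.05% Tween 20, 0.1% BSA, 1.0% DMSO. KD by least-squares fit.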

T1 sequence (P02786 89-760 limits assumed): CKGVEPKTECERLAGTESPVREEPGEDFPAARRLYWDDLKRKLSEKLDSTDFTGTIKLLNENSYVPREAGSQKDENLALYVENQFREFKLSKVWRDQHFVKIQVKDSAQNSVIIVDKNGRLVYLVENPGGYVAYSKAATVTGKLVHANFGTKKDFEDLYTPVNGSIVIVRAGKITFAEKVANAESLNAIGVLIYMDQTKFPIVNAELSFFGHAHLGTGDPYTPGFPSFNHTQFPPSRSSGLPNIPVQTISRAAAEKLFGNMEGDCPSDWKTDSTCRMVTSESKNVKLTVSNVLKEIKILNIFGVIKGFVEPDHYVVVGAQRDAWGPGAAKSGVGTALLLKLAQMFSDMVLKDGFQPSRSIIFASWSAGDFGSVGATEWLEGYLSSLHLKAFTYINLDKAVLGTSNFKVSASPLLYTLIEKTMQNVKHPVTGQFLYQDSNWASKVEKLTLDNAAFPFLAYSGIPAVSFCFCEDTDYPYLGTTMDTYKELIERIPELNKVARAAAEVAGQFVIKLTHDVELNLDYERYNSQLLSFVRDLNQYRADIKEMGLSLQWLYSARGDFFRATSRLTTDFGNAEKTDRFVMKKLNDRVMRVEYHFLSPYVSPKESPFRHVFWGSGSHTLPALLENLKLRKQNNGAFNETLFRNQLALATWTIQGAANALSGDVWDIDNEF

Row | Kd [µM] | Structure (SMILES)
1 | < 0.001 | CC[C@H](C)[C@@H]1NC(=O)[C@H](Cc2ccc(OCC(=O)O)cc2)NC(=O)[C@H](Cc2ccc(O)cc2)NC(=O)[C@H](CC(N)=O)NC(=O)[C@H](Cc2cn(CC(=O)O)c3ccccc23)NC(=O)[C@H](C(C)C)NC(=O)[C@H](Cc2cccc(Cl)c2)N(C)C(=O)[C@H](C(C)C)NC(=O)[C@H](C)NC(=O)CSC[C@@H](C(=O)NCCOCCOCCOCCOCCC(N)=O)NC(=O)[C@H](Cc2ccc(O)cc2)N(C)C(=O)[C@H](Cc2ccccc2)NC(=O)[C@H](CCCCN2CCOCC2)NC(=O)[C@H](CCCNC(=N)N)NC(=O)[C@H]([C@@H](C)CC)NC1=O [894_0389] ({CH2CO}-AV[NMePhe(3-Cl)]V[Trp(1-CH2COOH)]NYY(Carboxymethyl)IIR[Nle(6-morpholino)]F[NMeY]C[PEG4]-NH2; thioether N-15)
2 | < 0.001 | CC[C@H](C)[C@@H]1NC(=O)[C@H](Cc2ccc(OCC(=O)O)cc2)NC(=O)[C@H](Cc2ccc(O)cc2)NC(=O)[C@H](CC(N)=O)NC(=O)[C@H](Cc2cn(CC(=O)O)c3ccccc23)NC(=O)[C@H](C(C)C)NC(=O)[C@H](Cc2cccc(Cl)c2)N(C)C(=O)[C@H](C(C)C)NC(=O)[C@H](C)NC(=O)CSC[C@@H](C(=O)NCCOCCOCCOCCOCCC(N)=O)NC(=O)[C@H](Cc2ccc(O)cc2)N(C)C(=O)[C@H](Cc2ccccc2)NC(=O)[C@H](CCCCN2CCOCC2)NC(=O)[C@H](CCCCN2CCOCC2)NC(=O)[C@H]([C@@H](C)CC)NC1=O [894_0390] ({CH2CO}-AV[NMePhe(3-Cl)]V[Trp(1-CH2COOH)]NYY(Carboxymethyl)II[Nle(6-morpholino)][Nle(6-morpholino)]F[NMeY]C[PEG4]-NH2; thioether N-15)
3 | 0.001 to 0.1 | CC[C@H](C)[C@@H]1NC(=O)[C@H](Cc2ccc(O)cc2)NC(=O)[C@H](Cc2ccc(O)cc2)NC(=O)[C@H](CC(N)=O)NC(=O)[C@H](Cc2c[nH]c3ccc(Cl)cc23)NC(=O)[C@H](C(C)C)NC(=O)[C@H](Cc2ccccc2)N(C)C(=O)[C@H](C(C)C)NC(=O)[C@H](C)NC(=O)CSC[C@@H](C(=O)NCC(=O)N[C@@H](CCCCN=[N+]=[N-])C(N)=O)NC(=O)[C@H](Cc2ccc(O)cc2)N(C)C(=O)[C@H](Cc2ccccc2)NC(=O)[C@H](CCCNC(=N)N)NC(=O)[C@H](CCCNC(=N)N)NC(=O)[C@H]([C@@H](C)CC)NC1=O [894_3153]
4 | 0.001 to 0.1 | CC[C@H](C)[C@@H]1NC(=O)[C@H](Cc2ccc(OC)cc2)NC(=O)[C@H](Cc2ccc(O)cc2)NC(=O)[C@H](CC(N)=O)NC(=O)[C@H](Cc2c[nH]c3ccc(Cl)cc23)NC(=O)[C@H](C(C)C)NC(=O)[C@H](Cc2ccccc2)N(C)C(=O)[C@H](C(C)C)NC(=O)[C@H](C)NC(=O)CSC[C@@H](C(=O)NCC(=O)N[C@@H](CCCCN=[N+]=[N-])C(N)=O)NC(=O)[C@H](Cc2ccc(O)cc2)N(C)C(=O)[C@H](Cc2ccccc2)NC(=O)[C@H](CCCNC(=N)N)NC(=O)[C@H](CCCNC(=N)N)NC(=O)[C@H]([C@@H](C)CC)NC1=O [894_3154]
5 | 0.001 to 0.1 | CC[C@H](C)[C@@H]1NC(=O)[C@H](Cc2ccc(OC)cc2)NC(=O)[C@H](Cc2ccc(O)cc2)NC(=O)[C@H](CC(N)=O)NC(=O)[C@H](Cc2c[nH]c3ccc(Cl)cc23)NC(=O)[C@H](C(C)C)NC(=O)[C@H](Cc2ccccc2)N(C)C(=O)[C@H](C(C)C)NC(=O)[C@H](C)NC(=O)CSC[C@@H](C(=O)NCC(=O)N[C@@H](CCCCN=[N+]=[N-])C(N)=O)NC(=O)[C@H](Cc2ccc(O)cc2)N(C)C(=O)[C@H](Cc2ccccc2)NC(=O)[C@@H](CCCNC(=N)N)NC(=O)[C@H](CCCNC(=N)N)NC(=O)[C@H]([C@@H](C)CC)NC1=O [894_3155]
6 | 0.001 to 0.1 | CC[C@H](C)[C@@H]1NC(=O)[C@H](Cc2ccc(OC)cc2)NC(=O)[C@H](Cc2ccc(O)cc2)NC(=O)[C@H](CC(N)=O)NC(=O)[C@H](Cc2c[nH]c3ccc(Cl)cc23)NC(=O)[C@H](C(C)C)NC(=O)[C@H](Cc2ccc(F)cc2)N(C)C(=O)[C@H](C(C)C)NC(=O)[C@H](C)NC(=O)CSC[C@@H](C(=O)NCC(=O)N[C@@H](CCCCN=[N+]=[N-])C(N)=O)NC(=O)[C@H](Cc2ccc(O)cc2)N(C)C(=O)[C@H](Cc2ccccc2)NC(=O)[C@H](CCCNC(=N)N)NC(=O)[C@H](CCCNC(=N)N)NC(=O)[C@H]([C@@H](C)CC)NC1=O [894_3156]
7 | 0.1 to 1 | CC[C@H](C)[C@@H]1NC(=O)[C@H](Cc2ccc(OC)cc2)NC(=O)[C@H](Cc2ccc(O)cc2)NC(=O)[C@H](CC(N)=O)NC(=O)[C@H](Cc2c[nH]c3ccc(Cl)cc23)NC(=O)[C@H](C(C)C)NC(=O)[C@H](Cc2ccc(F)cc2)N(C)C(=O)[C@H](C(C)C)NC(=O)[C@H](C)NC(=O)CSC[C@@H](C(=O)NCC(=O)N[C@@H](CCCCN=[N+]=[N-])C(N)=O)NC(=O)[C@H](Cc2ccc(O)cc2)N(C)C(=O)[C@H](Cc2ccccc2)NC(=O)[C@@H](CCCNC(=N)N)NC(=O)[C@H](CCCNC(=N)N)NC(=O)[C@H]([C@@H](C)CC)NC1=O [894_3157]
8 | 0.001 to 0.1 | CC[C@H](C)[C@@H]1NC(=O)[C@H](Cc2ccc(OC)cc2)NC(=O)[C@H](Cc2ccc(O)cc2)NC(=O)[C@H](CC(N)=O)NC(=O)[C@H](Cc2c[nH]c3ccccc23)N(C)C(=O)[C@H](C(C)C)NC(=O)[C@H](Cc2ccncc2)N(C)C(=O)[C@H](C(C)C)NC(=O)[C@H](C)NC(=O)CSC[C@@H](C(=O)NCC(=O)N[C@@H](CCCCN=[N+]=[N-])C(N)=O)NC(=O)[C@H](Cc2ccc(O)cc2)N(C)C(=O)[C@H](Cc2ccccc2)NC(=O)[C@@H](CCCNC(=N)N)NC(=O)[C@H](CCCNC(=N)N)NC(=O)[C@H]([C@@H](C)CC)NC1=O [894_3158]
9 | 0.1 to 1 | CC[C@H](C)[C@@H]1NC(=O)[C@H](Cc2ccc(OC)cc2)NC(=O)[C@H](Cc2ccc(O)cc2)NC(=O)[C@H](CC(N)=O)NC(=O)[C@H](Cc2c[nH]c3ccccc23)N(C)C(=O)[C@H](C(C)C)NC(=O)[C@H](Cc2cccc(C(=O)O)c2)N(C)C(=O)[C@H](C(C)C)NC(=O)[C@H](C)NC(=O)CSC[C@@H](C(=O)NCC(=O)N[C@@H](CCCCN=[N+]=[N-])C(N)=O)NC(=O)[C@H](Cc2ccc(O)cc2)N(C)C(=O)[C@H](Cc2ccccc2)NC(=O)[C@@H](CCCNC(=N)N)NC(=O)[C@H](CCCNC(=N)N)NC(=O)[C@H]([C@@H](C)CC)NC1=O [894_3159]
10 | 0.1 to 1 | CC[C@H](C)[C@@H]1NC(=O)[C@H](Cc2ccc(O)cc2)NC(=O)[C@H](Cc2ccc(O)cc2)NC(=O)[C@H](C)NC(=O)[C@H](Cc2c[nH]c3ccccc23)NC(=O)[C@H](C(C)C)NC(=O)[C@H](Cc2ccccc2)N(C)C(=O)[C@H](C(C)C)NC(=O)[C@H](C)NC(=O)CSC[C@@H](C(=O)NCC(=O)N[C@@H](CCCCN=[N+]=[N-])C(N)=O)NC(=O)[C@H](Cc2ccc(O)cc2)N(C)C(=O)[C@H](Cc2ccc(O)cc2)NC(=O)[C@H](CCCNC(=N)N)NC(=O)[C@H](CCCNC(=N)N)NC(=O)[C@H]([C@@H](C)CC)NC1=O [894_3160]
11 | 0.001 to 0.1 | CC[C@H](C)[C@@H]1NC(=O)[C@H](Cc2ccc(O)cc2)NC(=O)[C@H](Cc2ccc(O)cc2)NC(=O)[C@H](CC(N)=O)NC(=O)[C@H](Cc2c[nH]c3ccc(Cl)cc23)NC(=O)[C@H](C(C)C)NC(=O)[C@H](Cc2ccccc2)N(C)C(=O)[C@H](C(C)C)NC(=O)[C@H](C)NC(=O)CSC[C@@H](C(=O)NCC(=O)N[C@@H](CCCCN=[N+]=[N-])C(N)=O)NC(=O)[C@H](Cc2ccc(O)cc2)N(C)C(=O)[C@H](Cc2ccc(O)cc2)NC(=O)[C@H](CCCNC(=N)N)NC(=O)[C@H](CCCNC(=N)N)NC(=O)[C@H]([C@@H](C)CC)NC1=O [894_3161]
12 | 0.001 to 0.1 | CC[C@H](C)[C@@H]1NC(=O)[C@H](Cc2ccc(OC)cc2)NC(=O)[C@H](Cc2ccc(O)cc2)NC(=O)[C@H](CC(N)=O)NC(=O)[C@H](Cc2c[nH]c3ccc(Cl)cc23)NC(=O)[C@H](C(C)C)NC(=O)[C@H](Cc2ccccc2)N(C)C(=O)[C@H](C(C)C)NC(=O)[C@H](C)NC(=O)CSC[C@@H](C(=O)NCC(=O)N[C@@H](CCCCN=[N+]=[N-])C(N)=O)NC(=O)[C@H](Cc2ccc(O)cc2)N(C)C(=O)[C@H](Cc2ccc(O)cc2)NC(=O)[C@H](CCCNC(=N)N)NC(=O)[C@H](CCCNC(=N)N)NC(=O)[C@H]([C@@H](C)CC)NC1=O [894_3162]
13 | 0.001 to 0.1 | CC[C@H](C)[C@@H]1NC(=O)[C@H](Cc2ccc(OC)cc2)NC(=O)[C@H](Cc2ccc(O)cc2)NC(=O)[C@H](CC(N)=O)NC(=O)[C@H](Cc2c[nH]c3ccc(Cl)cc23)NC(=O)[C@H](C(C)C)NC(=O)[C@H](Cc2ccc(F)cc2)N(C)C(=O)[C@H](C(C)C)NC(=O)[C@H](C)NC(=O)CSC[C@@H](C(=O)NCC(=O)N[C@@H](CCCCN=[N+]=[N-])C(N)=O)NC(=O)[C@H](Cc2ccc(O)cc2)N(C)C(=O)[C@H](Cc2ccc(O)cc2)NC(=O)[C@H](CCCNC(=N)N)NC(=O)[C@H](CCCNC(=N)N)NC(=O)[C@H]([C@@H](C)CC)NC1=O [894_3163]
14 | 0.001 to 0.1 | CC[C@H](C)[C@@H]1NC(=O)[C@H](Cc2ccc(OC)cc2)NC(=O)[C@H](Cc2ccc(O)cc2)NC(=O)[C@H](CC(N)=O)NC(=O)[C@H](Cc2c[nH]c3ccccc23)NC(=O)[C@H](C(C)C)NC(=O)[C@H](Cc2cccc(Cl)c2)N(C)C(=O)[C@H](C(C)C)NC(=O)[C@H](C)NC(=O)CSC[C@@H](C(=O)NCC(=O)N[C@@H](CCCCN=[N+]=[N-])C(N)=O)NC(=O)[C@H](Cc2ccc(O)cc2)N(C)C(=O)[C@H](Cc2ccc(O)cc2)NC(=O)[C@H](CCCNC(=N)N)NC(=O)[C@H](CCCNC(=N)N)NC(=O)[C@H]([C@@H](C)CC)NC1=O [894_3164]
15 | 0.001 to 0.1 | CC[C@H](C)[C@@H]1NC(=O)[C@H](Cc2ccc(OC)cc2)NC(=O)[C@H](Cc2ccc(O)cc2)NC(=O)[C@H](CC(N)=O)NC(=O)[C@H](Cc2c[nH]c3ccccc23)NC(=O)[C@H](C(C)C)NC(=O)[C@H](Cc2cccc(Cl)c2)N(C)C(=O)[C@H](C(C)C)NC(=O)[C@H](C)NC(=O)CSC[C@@H](C(=O)NCC(=O)N[C@@H](CCCCN=[N+]=[N-])C(N)=O)NC(=O)[C@H](Cc2ccc(O)cc2)N(C)C(=O)[C@H](Cc2ccc(O)cc2)NC(=O)[C@H](CCCNC(=N)N)NC(=O)[C@H](CCCCN)NC(=O)[C@H]([C@@H](C)CC)NC1=O [894_3165]
